In patent US11252963B2, “Pesticidally active pyrazole derivatives” (SYNGENTA PARTICIPATIONS AG, priority 2017, dated 2022):
Like-named read-outs stand apart in the source and are kept apart here.

How the values were obtained:
Format in all cases: in vivo
[1] = system: Thrips tabaci (Onion Thrips); assay: Thrips tabaci (Onion Thrips): feeding/contact activity; details: foliar, 144 h
Experimental: Thrips tabaci (Onion Thrips): Feeding/Contact Activity
Sunflower leaf discs were placed on agar in 24-well microtiter plates and sprayed with aqueous test solutions prepared from 10′000 ppm DMSO stock solutions. After drying the leaf discs were infested with a thrips population of mixed ages. The samples were assessed for mortality 6 days after infestation.

[2] = system: Euschistus heros (Neotropical Brown Stink Bug); assay: Euschistus heros (Neotropical Brown Stink Bug): feeding/contact activity; details: 120 h
Experimental: Euschistus heros (Neotropical Brown Stink Bug): Feeding/Contact Activity
Soybean leaves on agar in 24-well microtiter plates were sprayed with aqueous test solutions prepared from 10,000 ppm DMSO stock solutions. After drying the leaves were infested with N2 nymphs. The samples were assessed for mortality 5 days after infestation.

[3] = system: Tetranychus urticae (Two-Spotted Spider Mite); assay: Tetranychus urticae (Two-Spotted Spider Mite): feeding/contact activity; details: foliar, 192 h, read-out: mortality on mixed population (mobile stages)
Experimental: Tetranychus urticae (Two-Spotted Spider Mite): Feeding/Contact Activity
Bean leaf discs on agar in 24-well microtiter plates were sprayed with aqueous test solutions prepared from 10′000 ppm DMSO stock solutions. After drying the leaf discs were infested with a mite population of mixed ages. The samples were assessed for mortality on mixed population (mobile stages) 8 days after infestation.

[4] = system: Spodoptera littoralis (Egyptian Cotton Leaf Worm); assay: Spodoptera littoralis (Egyptian Cotton Leaf Worm): feeding/contact activity; details: foliar, 72 h
Experimental: Spodoptera littoralis (Egyptian Cotton Leaf Worm): Feeding/Contact Activity
Cotton leaf discs were placed onto agar in 24-well microtiter plates and sprayed with aqueous test solutions prepared from 10′000 ppm DMSO stock solutions. After drying the leaf discs were infested with five L1 larvae. The samples were assessed for mortality 3 days after infestation.

[5] = system: Plutella xylostella (Diamond Back Moth); assay: Plutella xylostella (Diamond Back Moth): feeding/contact activity; details: 120 h
Experimental: Plutella xylostella (Diamond Back Moth): Feeding/Contact Activity
24-well microtiter plates with artificial diet were treated with aqueous test solutions prepared from 10′000 ppm DMSO stock solutions by pipetting. After drying, the plates were infested with L2 larvae (10 to 15 per well). The samples were assessed for mortality 5 days after infestation.

[6] = system: Myzus persicae (Green Peach Aphid); assay: Myzus persicae (Green Peach Aphid): feeding/contact activity; details: foliar, 144 h
Experimental: Myzus persicae (Green Peach Aphid): Feeding/Contact Activity
Sunflower leaf discs were placed onto agar in a 24-well microtiter plate and sprayed with aqueous test solutions prepared from 10,000 ppm DMSO stock solutions. After drying, the leaf discs were infested with an aphid population of mixed ages. The samples were assessed for mortality 6 days after infestation.

[7] = system: Diabrotica balteata (Corn root worm); assay: Diabrotica balteata (Corn root worm) mortality test on sprayed maize sprouts; details: 96 h
Experimental: Diabrotica balteata (Corn root worm):
Maize sprouts placed onto an agar layer in 24-well microtiter plates were treated with aqueous test solutions prepared from 10′000 ppm DMSO stock solutions by spraying. After drying, the plates were infested with L2 larvae (6 to 10 per well). The samples were assessed for mortality 4 days after infestation.

[8] = application rate 200 ppm, sunflower leaf discs sprayed, thrips population of mixed ages, assessed 6 days after infestation, read-out: mortality
[9] = application rate 200 ppm, soybean leaves sprayed, N2 nymphs, assessed 5 days after infestation, read-out: mortality
[10] = application rate 200 ppm, bean leaf discs sprayed, mite population of mixed ages, assessed 8 days after infestation
[11] = application rate 200 ppm, cotton leaf discs sprayed, L1 larvae, assessed 3 days after infestation, read-out: mortality
[12] = application rate 200 ppm, artificial diet treated by pipetting, L2 larvae, assessed 5 days after infestation, read-out: mortality
[13] = application rate 200 ppm, sunflower leaf discs sprayed, aphid population of mixed ages, assessed 6 days after infestation, read-out: mortality
[14] = application rate 200 ppm, maize sprouts sprayed, L2 larvae, assessed 4 days after infestation, read-out: mortality

Measured: mortality at 200 ppm

CCOCN(C(=O)c1cc(-c2cnn(-c3c(OC(F)F)c(C(F)(F)C(F)(F)F)nn3C)c2)cnc1Cl)C1(C#N)CC1 [Compound 14, 2-chloro-N-(1-cyanocyclopropyl)-5-[1-[4-(difluoromethoxy)-2-methyl-5-(1,1,2,2,2-pentafluoroethyl)pyrazol-3-yl]pyrazol-4-yl]-N-(ethoxymethyl)pyridine-3-carboxamide]
≥ 80%: [1]; [8] | [2]; [9] | [3]; [10] | [4]; [11] | [5]; [12] | [6]; [13] | [7]; [14]

Cn1nc(C(F)(F)C(F)(F)F)c(OC(F)F)c1-n1cc(-c2cnc(Cl)c(C(=O)N(CC#N)C3(C#N)CC3)c2)cn1 [Compound 15, 2-chloro-N-(1-cyanocyclopropyl)-N-(cyanomethyl)-5-[1-[4-(difluoromethoxy)-2-methyl-5-(1,1,2,2,2-pentafluoroethyl)pyrazol-3-yl]pyrazol-4-yl]pyridine-3-carboxamide]
≥ 80%: [1]; [8] | [2]; [9] | [3]; [10] | [4]; [11] | [5]; [12] | [6]; [13] | [7]; [14]

CCOC(=O)N(C(=O)c1cc(-c2cnn(-c3c(OC(F)F)c(C(F)(F)C(F)(F)F)nn3C)c2)cnc1Cl)C1(C#N)CC1 [Compound 16, ethyl N-[2-chloro-5-[1-[4-(difluoromethoxy)-2-methyl-5-(1,1,2,2,2-pentafluoroethyl)pyrazol-3-yl]pyrazol-4-yl]pyridine-3-carbonyl]-N-(1-cyanocyclopropyl)carbamate]
≥ 80%: [1] | [2]; in Glycine max | [3] | [4] | [5] | [6] | [7]

COC(=O)N(C(=O)c1cc(-c2cnn(-c3c(OC(F)F)c(C(F)(F)C(F)(F)F)nn3C)c2)cnc1Cl)C1(C#N)CC1 [Compound 17, methyl N-[2-chloro-5-[1-[4-(difluoromethoxy)-2-methyl-5-(1,1,2,2,2-pentafluoroethyl)pyrazol-3-yl]pyrazol-4-yl]pyridine-3-carbonyl]-N-(1-cyanocyclopropyl)carbamate]
≥ 80%: [1] | [2]; in Glycine max | [3] | [4] | [5] | [6] | [7]

COCN(C(=O)c1cc(-c2cnn(-c3c(OC(F)F)c(C(F)(F)C(F)(F)F)nn3C)c2)cnc1Cl)C1(C#N)CC1 [Compound 18, 2-chloro-N-(1-cyanocyclopropyl)-5-[1-[4-(difluoromethoxy)-2-methyl-5-(1,1,2,2,2-pentafluoroethyl)pyrazol-3-yl]pyrazol-4-yl]-N-(methoxymethyl)pyridine-3-carboxamide]
≥ 80%: [1]; [8] | [2]; [9] | [3]; [10] | [4]; [11] | [5]; [12] | [6]; [13] | [7]; [14]

Cn1nc(C(F)(F)C(F)(F)F)c(OC(F)F)c1-n1cc(-c2cnc(Cl)c(C(=O)N(C(=O)C3CC3)C3(C#N)CC3)c2)cn1 [Compound 19, 2-chloro-N-(1-cyanocyclopropyl)-N-(cyclopropanecarbonyl)-5-[1-[4-(difluoromethoxy)-2-methyl-5-(1,1,2,2,2-pentafluoroethyl)pyrazol-3-yl]pyrazol-4-yl]pyridine-3-carboxamide]
≥ 80%: [1]; [8] | [2]; [9] | [3]; [10] | [4]; [11] | [5]; [12] | [6]; [13] | [7]; [14]

CCC(=O)N(C(=O)c1cc(-c2cnn(-c3c(OC(F)F)c(C(F)(F)C(F)(F)F)nn3C)c2)cnc1Cl)C1(C#N)CC1 [Compound 20, 2-chloro-N-(1-cyanocyclopropyl)-5-[1-[4-(difluoromethoxy)-2-methyl-5-(1,1,2,2,2-pentafluoroethyl)pyrazol-3-yl]pyrazol-4-yl]-N-propanoyl-pyridine-3-carboxamide]
≥ 80%: [1]; [8] | [2]; [9] | [3]; [10] | [4]; [11] | [5]; [12] | [6]; [13] | [7]; [14]

C#CCN(C(=O)c1cc(-c2cnn(-c3c(OC(F)F)c(C(F)(F)C(F)(F)F)nn3C)c2)cnc1Cl)C1(C#N)CC1 [Compound 21, 2-chloro-N-(1-cyanocyclopropyl)-5-[1-[4-(difluoromethoxy)-2-methyl-5-(1,1,2,2,2-pentafluoroethyl)pyrazol-3-yl]pyrazol-4-yl]-N-prop-2-ynyl-pyridine-3-carboxamide]
≥ 80%: [1]; [8] | [2]; [9] | [3]; [10] | [4]; [11] | [5]; [12] | [6]; [13] | [7]; [14]

CC(=O)N(C(=O)c1cc(-c2cnn(-c3c(OC(F)F)c(C(F)(F)C(F)(F)F)nn3C)c2)cnc1Cl)C1(C#N)CC1 [Compound 22, N-acetyl-2-chloro-N-(1-cyanocyclopropyl)-5-[1-[4-(difluoromethoxy)-2-methyl-5-(1,1,2,2,2-pentafluoroethyl)pyrazol-3-yl]pyrazol-4-yl]pyridine-3-carboxamide]
≥ 80%: [1]; [8] | [2]; [9] | [3]; [10] | [4]; [11] | [5]; [12] | [6]; [13] | [7]; [14]
